Legend:
[1] = molecular target: T1, Psychromonas marina CASDH (Psychromonas marina, UniProt A0ABQ6DYR2); test: LC-MS of benzoylated spermidine in E. coli extract; type: cell-based; conditions: endogenous putrescine, BL21speD, coexpressed with CASDC
T1 sequence (A0ABQ6DYR2 1-405): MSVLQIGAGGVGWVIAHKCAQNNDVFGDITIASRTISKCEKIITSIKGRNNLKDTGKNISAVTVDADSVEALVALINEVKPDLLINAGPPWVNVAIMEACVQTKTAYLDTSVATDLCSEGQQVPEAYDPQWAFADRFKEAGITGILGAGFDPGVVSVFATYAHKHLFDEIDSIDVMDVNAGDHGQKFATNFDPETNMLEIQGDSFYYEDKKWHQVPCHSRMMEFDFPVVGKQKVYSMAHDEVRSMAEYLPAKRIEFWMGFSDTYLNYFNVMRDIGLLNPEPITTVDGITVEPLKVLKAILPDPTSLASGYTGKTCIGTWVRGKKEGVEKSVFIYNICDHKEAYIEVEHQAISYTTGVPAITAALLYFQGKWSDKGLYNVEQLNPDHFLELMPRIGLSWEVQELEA

Brucella abortus CASDH = molecular target: T2, Brucella abortus CASDH (Brucella abortus, UniProt Q2YPK8); conditions: endogenous putrescine, BL21speD, coexpressed with CASDC
T2 construct: gene BAB1_0364

NCCCCN [putrescine]
LC-MS of benzoylated spermidine in E. coli extract [1]: all CASDH/CASDC pairs were able to synthesize spermidine in the spermidine-void BL21speD cells
LC-MS of benzoylated spermidine in E. coli extract (Brucella abortus CASDH): all CASDH/CASDC pairs were able to synthesize spermidine in the spermidine-void BL21speD cells
